Literature values as cited in publication PMC12326358, “Effect of Quantitative Structural Properties and Drug Formulation in Four Cannabinoids (Cannabidiol, Cannabigerol, Cannabichromene, and Cannabinol) on Their Lymphatic Transport after Enteral Administration in Rats” (Molecular Pharmaceutics, 2025).

Experiments:
[1] = Beagle dogs, formulation with drug dispersed in small lipid droplets; cited from earlier work
[2] = cited from earlier work; for log P: ref literature
[3] = cited from earlier work

Row | Compound | bioavailability increase [1] [fold] | solubility in long-chain triglycerides [2] [mg/g] | log P [2] | partitioning into lymph [3] | FRL ([3]; drug with prominent first-pass metabolism in the liver, ref literature) [%]
1 | CC(C)(C)c1cc(C(C)(C)C)c(NC(=O)c2c[nH]c3ccccc3c2=O)cc1O [ivacaftor, reference compound] | 7 |  |  |  | 
2 | COc1nc(C(Cl)(Cl)Cl)c(Cl)c(OC)c1Cl [penclomedine] |  | > 50 | > 5 | very limited partitioning into lymph | 
3 | CCCCCCCCCCC(=O)O[C@H]1CC[C@H]2[C@@H]3CCC4=CC(=O)CC[C@]4(C)[C@H]3CC[C@]12C [testosterone undecanoate] |  |  | 6.7 |  | 98.5
